Measured values published in US5346896A, “1-(aryl or heteroaryl)-4[ω-(aryl or heteroaryl)ω-(aryl or heteroaryl)alkylene]piperazines” (John Wyeth & Brother, Limited, priority 1990, dated 1994).

Target: T1, 5-HT1A receptor (Rattus norvegicus, UniProt P19327)
T1 construct: rat hippocampal membrane homogenate; from tissue; host or cells: rat hippocampus, membrane homogenate
T1 sequence (P19327 1-422): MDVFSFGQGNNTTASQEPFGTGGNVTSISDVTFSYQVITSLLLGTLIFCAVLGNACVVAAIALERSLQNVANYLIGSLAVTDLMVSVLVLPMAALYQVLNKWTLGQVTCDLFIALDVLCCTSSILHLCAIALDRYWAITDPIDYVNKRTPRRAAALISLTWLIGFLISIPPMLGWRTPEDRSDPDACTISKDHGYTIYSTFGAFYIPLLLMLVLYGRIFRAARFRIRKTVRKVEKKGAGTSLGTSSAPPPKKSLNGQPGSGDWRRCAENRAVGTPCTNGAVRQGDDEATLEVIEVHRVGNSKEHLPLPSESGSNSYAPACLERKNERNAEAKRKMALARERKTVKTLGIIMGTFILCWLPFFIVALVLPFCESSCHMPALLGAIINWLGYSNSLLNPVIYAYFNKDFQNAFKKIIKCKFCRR
Experiment: 5-HT1A receptor binding activity in rat hippocampal membrane homogenate
Conditions: method of Alexander and Wood
Description: The compounds of the invention are tested for 5-HT1A receptor binding activity in rat hippocampal membrane homogenate by the method of B. S. Alexander and M. D. Wood, J Pharm Pharmacol, 1988, 40, 888-891.

Structure (SMILES): COc1ccccc1N1CCN(CC(c2ccccn2)C(O)c2ccccc2)CC1 (stereo not shown) [Example 2]
- IC50: 20 nM
